Laboratory results taken from ChEMBL document CHEMBL1133171, “Selective plasma hydrolysis of glucocorticoid gamma-lactones and cyclic carbonates by the enzyme paraoxonase: an ideal plasma inactivation mechanism” (J Med Chem, 2000).
pIC50: −log10 of the molar value.

How the values were obtained:
Glucocorticoid receptor [1] = target: T1, Glucocorticoid receptor (Homo sapiens, UniProt P04150); assay: (§1) Inhibition of [3H]dexamethasone binding to human Glucocorticoid Receptor
T1 sequence (P04150 whole entry): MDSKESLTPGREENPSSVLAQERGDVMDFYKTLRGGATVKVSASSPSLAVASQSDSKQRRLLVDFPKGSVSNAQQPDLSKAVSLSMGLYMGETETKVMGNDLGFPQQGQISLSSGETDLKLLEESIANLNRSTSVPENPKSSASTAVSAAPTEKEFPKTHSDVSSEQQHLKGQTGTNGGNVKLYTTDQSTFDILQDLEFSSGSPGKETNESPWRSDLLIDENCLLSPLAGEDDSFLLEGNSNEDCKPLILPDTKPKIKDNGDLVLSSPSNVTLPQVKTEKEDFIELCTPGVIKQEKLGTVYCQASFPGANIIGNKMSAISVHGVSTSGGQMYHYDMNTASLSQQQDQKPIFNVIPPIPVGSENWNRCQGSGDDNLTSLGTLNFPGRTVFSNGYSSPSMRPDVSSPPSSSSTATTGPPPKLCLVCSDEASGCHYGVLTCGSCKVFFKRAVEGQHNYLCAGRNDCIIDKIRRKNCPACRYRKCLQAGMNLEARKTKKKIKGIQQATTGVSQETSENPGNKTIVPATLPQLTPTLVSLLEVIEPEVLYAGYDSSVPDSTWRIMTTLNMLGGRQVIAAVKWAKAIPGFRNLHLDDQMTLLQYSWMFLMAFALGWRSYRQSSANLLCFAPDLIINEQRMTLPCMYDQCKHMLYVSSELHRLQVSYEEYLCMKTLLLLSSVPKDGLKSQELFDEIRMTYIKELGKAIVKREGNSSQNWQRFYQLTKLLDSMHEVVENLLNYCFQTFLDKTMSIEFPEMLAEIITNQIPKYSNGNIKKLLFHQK

Glucocorticoid receptor [2] = target: T1, Glucocorticoid receptor; assay: as §1; remark: listed apart in the source

SMILES: CC1(C)O[C@@H]2CC3C4C[C@H](F)C5=CC(=O)C=C[C@]5(C)[C@@]4(F)[C@@H](O)C[C@]3(C)[C@]2(C(=O)CSC(CCO)C(=O)O)O1 (some centres not stated)
- pIC50 (Glucocorticoid receptor [1]): 6.08
- pIC50 (Glucocorticoid receptor [2]): 6.71
